The results in this text go back to patent publication US20260234150A1, “COMPOUND FOR INHIBITING NLRP3, PREPARATION METHOD, AND USE” (DOVETREE MEDICINES UNUS, INC., priority 2023, published 2026).

One experiment concerns the target T1, hERG ion channel (Homo sapiens, UniProt Q12809).
T1 construct: host or cells: HEK293
The experiment is described as follows: hERG ion channel inhibition, manual patch clamp in HEK293 cells. The class given is cell-based. As to conditions: HEK293 cells stably expressing hERG, read-out: hERG(IC50, manupatch). The procedure: This experiment used manual patch clamp electrophysiology to detect the inhibitory effect of compounds on hERG ion channels, and evaluated cardiac safety based on the single concentration inhibition rate or IC50 size of the compounds.
The cells used in this experiment are HEK293 cell lines transfected with hERG cDNA and stably expressing hERG channels (#60187, provided by BPS, P3-P23 generations are used for experimental research). Cells were cultured in a medium containing the following components: MEM medium, 10% (v/v) inactivated fetal bovine serum, 1 mM sodium pyruvate, […] geneticin, 0.1 mM non-essential amino acids, and 100 U penicillin-streptomycin. HEK293 hERG cells were grown in culture flasks containing the above culture medium and cultured in an incubator at 37° C. and 5% CO2. […]
The electrophysiological experiments were performed by a manual patch clamp system (HEKAEPC-10 signal amplifier and digital conversion system, purchased from HEKA Electronics, Germany) to record the whole-cell current. […] After the hERG current recorded in the above steps reaches stability under continuous perfusion of extracellular fluid in the recording tank, different concentrations of the test compound can be perfused until the inhibitory effect of the drug on the hERG current reaches a stable state. […]
In general terms: hERG is a cardiac potassium channel; its block is linked to QT prolongation.

In experiment [1] the target is T2, His6-Flag-TEV-NLRP3 (134-1036) (Homo sapiens, UniProt Q96P20).
T2 construct: fused on or other part: N-terminal His6 tag, Flag tag and TEV cleavage site
The experiment is described as follows: NLRP3 fluorescence polarization (FP) binding assay, competition with probe NP3-301. As to conditions: competition with NP3-301 for binding to NLRP3 (134-1036), 30 nM protein. In outline:
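Compound was preincubated 60 min at room temperature with NLRP3 protein (30 nM final) in 50 mM Hepes pH 7.4, 150 mM NaCl, 2.5 mM MgCl2, 1 mM TCEP, 100 μM ATP. Probe NP3-301 (0.5 nM final) was then added for 30 min. Fluorescence polarization was read at ex 485/em 535 nm, and IC50 was obtained by four-parameter logistic fit.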
A general note: Polarisation of emitted light reports the rotation of a fluorescent probe.

The test system of experiment [2] is IL-1β secretion of THP-1 cells. The experiment is described as follows: Effect of NLRP3 inhibitor on IL-1β secretion of THP-1 cells (AlphaLISA). The class given is cell-based. Particulars: Homo sapiens; PMA, LPS and Nigericin stimulated THP-1 cells, IL-1β in supernatant; read-out: IC50 (nM), THP-1 cells to detect NLRP3 inhibitors. The method, then: This experiment used the PerkinElmer AlphaLISA_human_IL1β kit (AL220 C/F). The detection buffer was RPMI-1640+10FBS. AlphaLISA Immunoassay Buffer, AlphaLISA Anti-IL1β Acceptor beads, Streptavidin (SA)-coated Donor beads, and Biotinylated Antibody Anti-IL1β were all included in the kit.
The density of THP1 cells was adjusted to 4×10^5 cells/mL, PMA (final concentration 50 nM) was added, inoculated into 96-well flat-bottom plates at 200 μL/well, and stimulated overnight at 37° C., 5% CO2 (try to <16h). The next day, the supernatant was discarded, and the flat washed twice with DPBS ([…]/time). Then LPS solution (final concentration of 100 ng/ml) was added at 198 μL/well, incubated at 37° C., 5% CO2 for 3h. 1 μL of the corresponding concentration of compounds was added to each well according to the experimental MAP, incubated at 37° C., 5% CO2 for 1 h. 1 μL Nigericin (final concentration of […]) was added to each well, incubated overnight at 5% CO2 (>18h). On the third day, 5 μL of supernatant was taken, diluted 20 times, and the content of IL-Iβ in the supernatant was detected by Human Interleukin 1 beta (IL1β) Kit. Envision was used to read the AlphaLISA test value of Ex=680/[…]. GraphPad Prism 9.5.0 was used to analyze the data, and the IC50 value of the compound for IL-Iβ antagonism was fitted by four-parameter Logistic.

As a reminder, the IC50 is the point on the concentration scale where inhibition reaches its midpoint.

T2 sequence (Q96P20 134-1036 limits assumed): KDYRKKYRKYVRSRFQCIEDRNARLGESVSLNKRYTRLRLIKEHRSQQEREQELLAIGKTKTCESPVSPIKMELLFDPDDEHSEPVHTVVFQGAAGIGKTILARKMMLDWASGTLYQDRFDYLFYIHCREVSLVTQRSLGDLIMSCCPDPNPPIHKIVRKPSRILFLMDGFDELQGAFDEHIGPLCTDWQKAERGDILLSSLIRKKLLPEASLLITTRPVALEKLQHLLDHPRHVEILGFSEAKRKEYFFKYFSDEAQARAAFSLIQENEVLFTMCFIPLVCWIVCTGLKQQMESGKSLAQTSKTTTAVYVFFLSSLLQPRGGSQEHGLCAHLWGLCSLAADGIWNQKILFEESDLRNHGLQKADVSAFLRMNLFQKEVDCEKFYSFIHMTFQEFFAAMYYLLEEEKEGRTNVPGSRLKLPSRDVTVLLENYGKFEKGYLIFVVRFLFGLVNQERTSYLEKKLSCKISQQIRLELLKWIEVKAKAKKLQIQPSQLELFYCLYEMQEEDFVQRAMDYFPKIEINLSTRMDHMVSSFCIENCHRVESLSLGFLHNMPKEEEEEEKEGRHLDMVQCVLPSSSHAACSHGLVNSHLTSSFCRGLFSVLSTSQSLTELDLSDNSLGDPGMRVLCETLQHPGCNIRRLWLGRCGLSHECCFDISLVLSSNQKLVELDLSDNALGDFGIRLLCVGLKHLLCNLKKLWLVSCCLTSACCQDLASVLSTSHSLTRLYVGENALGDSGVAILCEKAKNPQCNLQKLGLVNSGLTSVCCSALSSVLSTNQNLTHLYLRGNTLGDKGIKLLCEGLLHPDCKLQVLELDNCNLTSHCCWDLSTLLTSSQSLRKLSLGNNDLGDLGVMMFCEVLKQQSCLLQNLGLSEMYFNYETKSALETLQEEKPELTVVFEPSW
T1 sequence (Q12809 whole entry): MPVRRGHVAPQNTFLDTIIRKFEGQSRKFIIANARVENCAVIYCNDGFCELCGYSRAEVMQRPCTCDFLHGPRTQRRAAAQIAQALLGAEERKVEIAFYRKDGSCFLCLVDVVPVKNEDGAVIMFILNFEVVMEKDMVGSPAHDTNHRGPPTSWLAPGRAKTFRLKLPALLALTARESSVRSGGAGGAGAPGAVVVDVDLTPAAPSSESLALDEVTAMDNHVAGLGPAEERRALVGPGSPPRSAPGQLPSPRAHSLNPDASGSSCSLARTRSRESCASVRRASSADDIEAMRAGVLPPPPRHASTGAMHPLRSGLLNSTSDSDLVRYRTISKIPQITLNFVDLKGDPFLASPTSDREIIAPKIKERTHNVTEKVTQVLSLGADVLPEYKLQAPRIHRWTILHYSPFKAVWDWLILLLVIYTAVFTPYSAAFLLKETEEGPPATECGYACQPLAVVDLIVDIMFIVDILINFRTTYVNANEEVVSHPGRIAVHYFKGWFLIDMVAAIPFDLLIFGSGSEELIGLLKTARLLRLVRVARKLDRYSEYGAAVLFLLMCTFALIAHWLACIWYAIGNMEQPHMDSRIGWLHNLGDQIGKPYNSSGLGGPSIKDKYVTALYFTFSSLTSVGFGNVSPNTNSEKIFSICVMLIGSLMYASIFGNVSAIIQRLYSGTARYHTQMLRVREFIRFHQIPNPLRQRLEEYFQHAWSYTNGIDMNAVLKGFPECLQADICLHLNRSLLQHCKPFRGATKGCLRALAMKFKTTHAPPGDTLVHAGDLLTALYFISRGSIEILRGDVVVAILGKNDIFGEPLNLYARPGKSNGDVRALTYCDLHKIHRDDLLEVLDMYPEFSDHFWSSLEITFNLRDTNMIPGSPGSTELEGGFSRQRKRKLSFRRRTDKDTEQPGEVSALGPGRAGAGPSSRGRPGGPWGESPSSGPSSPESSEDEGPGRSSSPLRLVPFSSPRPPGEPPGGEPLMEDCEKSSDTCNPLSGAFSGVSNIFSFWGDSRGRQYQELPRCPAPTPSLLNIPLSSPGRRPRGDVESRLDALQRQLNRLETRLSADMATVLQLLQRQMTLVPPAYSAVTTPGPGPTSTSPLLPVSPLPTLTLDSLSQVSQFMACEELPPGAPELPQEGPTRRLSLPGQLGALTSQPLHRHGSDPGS

On to `Cc1cc(C(F)(F)F)cc(O)c1-c1ccc2oc(N3CCS(=O)(=O)CC3)nc2n1` [Compound 384], for which the IC50 at hERG ion channel was above 30000 nM; in experiment [1], at most 100 nM; in experiment [2], below 50 nM.
